What follows are compounds tested against T1, 11β-HSD 1 (Homo sapiens, UniProt P28845) (assay: In vitro inhibition of 11β-HSD 1, HTRF detection of cortisol generated by human liver microsomes). Conditions: 1 μM test compound, 100% indicates no inhibition, zero or below zero indicates complete inhibition (relative to carbenoxolone).
T1 construct: detecting cortisol generated from cortisterone by human liver microsomes; from tissue; host or cells: human liver microsomes
Type: biochemical
In short: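 Human liver microsomes with test compound were incubated 1 h at 37 °C in Tris buffer, pH 6.0, with 200 μM NADPH and 80 nM cortisone. Cortisol formed was detected by competitive HTRF immunoassay (665/615 nm ratio) and calibrated against a cortisol standard curve. Values are activities at 1 μM compound relative to carbenoxolone, where 100% indicates no inhibition.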

T1 sequence (P28845 whole entry): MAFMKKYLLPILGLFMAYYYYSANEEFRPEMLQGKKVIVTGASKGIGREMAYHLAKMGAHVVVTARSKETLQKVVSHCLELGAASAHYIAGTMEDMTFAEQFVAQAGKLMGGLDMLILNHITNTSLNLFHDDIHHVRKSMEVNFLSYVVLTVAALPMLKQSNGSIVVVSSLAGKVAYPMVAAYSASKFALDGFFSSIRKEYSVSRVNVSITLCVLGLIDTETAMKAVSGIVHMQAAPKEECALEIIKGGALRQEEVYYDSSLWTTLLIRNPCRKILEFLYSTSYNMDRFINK

In order of falling “Inhibitory activity on 11β-HSD 1, % CTL” value:
1. O=C(c1cccc(N2CCCCS2(=O)=O)c1)N1C2CCC1CC(c1ccc(F)cc1)C2 (stereo not drawn) [Example 40, endo-[3-(1,1-Dioxo-1lambda*6*-[1,2]thiazinan-2-yl)-phenyl-[3-(4-fluoro-phenyl)-8-aza-bicyclo[3.2.1]oct-8-yl]-methanone]  98 % CTL
2. O=C(c1nsc(Cl)c1Cl)N1[C@@H]2CC[C@H]1C[C@@H](c1ccc(F)cc1)C2 [Example 30, endo-(4,5-Dichloro-isothiazol-3-yl)-[3-(4-fluoro-phenyl)-8-aza-bicyclo[3.2.1]oct-8-yl]-methanone]  88 % CTL
3. O=C(c1n[nH]c2c1CCC2)N1[C@@H]2CC[C@H]1C[C@@H](c1ccc(F)cc1)C2 [Example 6, endo-[3-(4-Fluoro-phenyl)-8-aza-bicyclo[3.2.1]oct-8-yl]-(1,4,5,6-tetrahydro-cyclopentapyrazol-3-yl)-methanone]  88 % CTL
4. COC(=O)c1ccc(C(=O)N2[C@@H]3CC[C@H]2C[C@@H](c2ccc(C)cc2)C3)s1 [Example 9, endo-5-(3-p-Tolyl-8-aza-bicyclo[3.2.1]octane-8-carbonyl)-thiophene-2-carboxylic acid methyl ester]  87 % CTL
5. CS(=O)(=O)c1cccc(C(=O)N2[C@@H]3CC[C@H]2C[C@@H](c2ccc(F)cc2)C3)c1 [Example 67, Endo-[3-(4-Fluoro-phenyl)-8-aza-bicyclo[3.2.1]oct-8-yl]-(3-methanesulfonyl-phenyl)-methanone]  85 % CTL
6. Cc1ccc(C(=O)N2[C@@H]3CC[C@H]2C[C@@H](c2ccc(F)cc2)C3)c(C)c1 [Example 122, endo-(2,4-Dimethyl-phenyl)-[3-(4-fluoro-phenyl)-8-aza-bicyclo[3.2.1]oct-8-yl]-methanone]  63 % CTL
7. O=C(c1cnn2cccnc12)N1[C@@H]2CC[C@H]1C[C@@H](c1ccc(F)cc1)C2 [Example 35, endo-[3-(4-Fluoro-phenyl)-8-aza-bicyclo[3.2.1]oct-8-yl]-pyrazolo[1,5-a]pyrimidin-3-yl-methanone]  62 % CTL
8. O=C(c1cccc(F)c1)N1[C@@H]2CC[C@H]1C[C@@H](c1ccc(F)cc1)C2 [Example 104, endo-(3-Fluoro-phenyl)-[3-(4-fluoro-phenyl)-8-aza-bicyclo[3.2.1]oct-8-yl]-methanone]  43 % CTL
9. CCn1ccc2ccc(C(=O)N3[C@@H]4CC[C@H]3C[C@@H](c3ccc(F)cc3)C4)cc21 [Example 51, endo-(1-Ethyl-1H-indol-6-yl)-[3-(4-fluoro-phenyl)-8-aza-bicyclo[3.2.1]oct-8-yl]-methanone]  41 % CTL
10. NC(=O)c1cccc(C(=O)N2[C@@H]3CC[C@H]2C[C@@H](c2ccc(F)cc2)C3)c1 [Example 84, endo-3-[3-(4-Fluoro-phenyl)-8-aza-bicyclo[3.2.1]octane-8-carbonyl]-benzamide]  41 % CTL
11. CC(=O)NCc1ccc(C(=O)N2[C@@H]3CC[C@H]2C[C@@H](c2ccc(F)cc2)C3)cc1 [Example 71, endo-N-{4-[3-(4-Fluoro-phenyl)-8-aza-bicyclo[3.2.1]octane-8-carbonyl]-benzyl}-acetamide]  41 % CTL
12. CC(=O)Nc1ccc(C(=O)N2[C@@H]3CC[C@H]2C[C@@H](c2ccc(F)cc2)C3)cc1 [Example 115, endo-N-{4-[3-(4-Fluoro-phenyl)-8-aza-bicyclo[3.2.1]octane-8-carbonyl]-phenyl}-acetamide]  33 % CTL
13. NC(=O)c1cccc(C2CC3CCC(C2)N3C(=O)c2ccc3c(c2)OCCO3)c1 (stereo not shown) [Example 149, 3-[8-(2,3-Dihydro-benzo[1,4]dioxine-6-carbonyl)-8-aza-bicyclo[3.2.1]oct-3-yl]-benzamide]  30 % CTL
14. O=C(c1ccc2nn[nH]c2c1)N1[C@@H]2CC[C@H]1C[C@@H](c1ccc(F)cc1)C2 [Example 120, endo-(3H-Benzotriazol-5-yl)-[3-(4-fluoro-phenyl)-8-aza-bicyclo[3.2.1]oct-8-yl]-methanone]  25 % CTL
15. COc1cc(C(=O)N2[C@@H]3CC[C@H]2C[C@@H](c2ccc(F)cc2)C3)cc(OC)c1O [Example 181, endo-[3-(4-Fluoro-phenyl)-8-aza-bicyclo[3.2.1]oct-8-yl]-(4-hydroxy-3,5-dimethoxy-phenyl)-methanone]  18 % CTL
16. O=C(c1cccc(Cl)c1)N1[C@@H]2CC[C@H]1C[C@@H](c1ccc(F)cc1)C2 [Example 125, endo-(3-Chloro-phenyl)-[3-(4-fluoro-phenyl)-8-aza-bicyclo[3.2.1]oct-8-yl]-methanone]  7 % CTL
17. O=C(c1cccc(CO)c1)N1[C@@H]2CC[C@H]1C[C@@H](c1ccc(F)cc1)C2 [Example 82, endo-[3-(4-Fluoro-phenyl)-8-aza-bicyclo[3.2.1]oct-8-yl]-(3-hydroxymethyl-phenyl)-methanone]  5 % CTL
18. O=C(c1ccc2c(c1)OCCO2)N1[C@@H]2CC[C@H]1C[C@@H](c1cccnc1)C2 [Example 153, endo-(2,3-Dihydro-benzo[1,4]dioxin-6-yl)-(3-pyridin-3-yl-8-aza-bicyclo[3.2.1]oct-8-yl)-methanone]  −4 % CTL
19. O=C(c1cc(F)c(O)c(Cl)c1)N1[C@@H]2CC[C@H]1C[C@@H](c1ccc(F)cc1)C2 [Example 179, endo-(3-Chloro-5-fluoro-4-hydroxy-phenyl)-[3-(4-fluoro-phenyl)-8-aza-bicyclo[3.2.1]oct-8-yl]-methanone]  −11 % CTL
20. COc1cc(OC)cc(C(=O)N2[C@@H]3CC[C@H]2C[C@@H](c2ccc(F)cc2)C3)c1 [Example 123, endo-(3,5-Dimethoxy-phenyl)-[3-(4-fluoro-phenyl)-8-aza-bicyclo[3.2.1]oct-8-yl]-methanone]  −17 % CTL
21. Nc1c(Cl)cc(C(=O)N2[C@@H]3CC[C@H]2C[C@@H](c2ccc(F)cc2)C3)cc1Cl [Example 178, endo-(4-Amino-3,5-dichloro-phenyl)-[3-(4-fluoro-phenyl)-8-aza-bicyclo[3.2.1]oct-8-yl]-methanone]  −22 % CTL
22. O=C(c1ccc(O)c(F)c1)N1[C@@H]2CC[C@H]1C[C@@H](c1ccc(F)cc1)C2 [Example 169, endo-(3-Fluoro-4-hydroxy-phenyl)-[3-(4-fluoro-phenyl)-8-aza-bicyclo[3.2.1]oct-8-yl]-methanone]  −25 % CTL
23. NC(=O)c1ccc(C(=O)N2[C@@H]3CC[C@H]2C[C@@H](c2ccc(F)cc2)C3)c(F)c1 [Example 36, endo-3-Fluoro-4-[3-(4-fluoro-phenyl)-8-aza-bicyclo[3.2.1]octane-8-carbonyl]-benzamide]  −28 % CTL
24. O=C(c1ccc(CO)cc1)N1[C@@H]2CC[C@H]1C[C@@H](c1ccc(F)cc1)C2 [Example 121, endo-[3-(4-Fluoro-phenyl)-8-aza-bicyclo[3.2.1]oct-8-yl]-(4-hydroxymethyl-phenyl)-methanone]  −28 % CTL
25. COc1ccc([C@@H]2C[C@H]3CC[C@@H](C2)N3C(=O)c2ccc3c(c2)OCCO3)cc1 [Example 135, exo-(2,3-Dihydro-benzo[1,4]dioxin-6-yl)-[3-(4-methoxy-phenyl)-8-aza-bicyclo[3.2.1]oct-8-yl]-methanone]  −35 % CTL
26. Nc1ccc(C(=O)N2[C@@H]3CC[C@H]2C[C@@H](c2ccc(F)cc2)C3)cc1Cl [Example 173, endo-(4-Amino-3-chloro-phenyl)-[3-(4-fluoro-phenyl)-8-aza-bicyclo[3.2.1]oct-8-yl]-methanone]  −46 % CTL
27. O=C(c1ccc(O)cc1)N1[C@@H]2CC[C@H]1C[C@@H](c1ccc(F)cc1)C2 [Example 130, endo-[3-(4-Fluoro-phenyl)-8-aza-bicyclo[3.2.1]oct-8-yl]-(4-hydroxy-phenyl)-methanone]  −47 % CTL
28. O=C(c1ccc2c(c1)OCCO2)N1C2CCC1CC(c1ccc(Cl)cc1F)C2 (stereo not shown) [Example 144, [3-(4-Chloro-2-fluoro-phenyl)-8-aza-bicyclo[3.2.1]oct-8-yl]-(2,3-dihydro-benzo[1,4]dioxin-6-yl)-methanone]  −59 % CTL

Same assay, conditions: 1 μM test compound, 100% indicates no inhibition, zero or below zero indicates complete inhibition (relative to carbenoxolone), 1 µM

In order of falling “Inhibitory activity on 11β-HSD 1, % CTL” value:
1. O=C(c1ccccn1)N1[C@@H]2CC[C@H]1C[C@@H](c1ccc(F)cc1)C2 [Example 98, endo-[3-(4-Fluoro-phenyl)-8-aza-bicyclo[3.2.1]oct-8-yl]-pyridin-2-yl-methanone]  74 % CTL
2. NC(=O)c1ccc(C(=O)N2[C@@H]3CC[C@H]2C[C@@H](c2ccc(F)cc2)C3)cc1 [Example 81, endo-4-[3-(4-Fluoro-phenyl)-8-aza-bicyclo[3.2.1]octane-8-carbonyl]-benzamide]  −9 % CTL
3. NC(=O)c1ccc(C(=O)N2[C@@H]3CC[C@H]2C[C@@H](c2ccc(F)cc2)C3)cc1 [Example 2, endo-4-[3-(4-Fluoro-phenyl)-8-aza-bicyclo[3.2.1]octane-8-carbonyl]-benzamide]  −27 % CTL

Reference: patent US8609690B2, “Aryl- and heteroarylcarbonyl derivatives of substituted nortropanes, medicaments containing such compounds and their use” (Boehringer Ingelheim International GmbH, priority 2008, dated 2013)
